Laboratory results as given in the NIST ThermoML archive (doi:10.1021/je301123j).
± gives the expanded uncertainty stated by the source.

How the values were obtained:
[1] = for surface tension liquid-gas: Ring tensiometer; for mass density / speed of sound / viscosity: 100 kPa, Liquid
[2] = xn = mol fraction of the nth substance listed; settings: x2 = 0; for surface tension liquid-gas: Ring tensiometer; for mass density / speed of sound / viscosity: 100 kPa, Liquid

Row | Compound | surface tension liquid-gas ([1]; 293.15 K) | mass density ([1]; 293.15 K) | speed of sound ([1]; 293.15 K) | viscosity ([1]; 293.15 K) | surface tension liquid-gas ([1]; 303.15 K) | mass density ([1]; 303.15 K) | speed of sound ([1]; 303.15 K) | viscosity ([1]; 303.15 K) | surface tension liquid-gas ([1]; 313.15 K) | mass density ([1]; 313.15 K) | speed of sound ([1]; 313.15 K) | viscosity ([1]; 313.15 K) | mass density ([1]; 323.15 K) | speed of sound ([1]; 323.15 K) | viscosity ([1]; 323.15 K) | surface tension liquid-gas ([2]; 293.15 K) | mass density ([2]; 293.15 K) | speed of sound ([2]; 293.15 K) | viscosity ([2]; 293.15 K) | surface tension liquid-gas ([2]; 303.15 K) | also measured
1 | CCN1CCCC1=O [1-ethyl-2-pyrrolidinone] | 36.5 ± 0.8 mN/m | 997.91 ± 1.6 kg/m3 | 1513.2 ± 4.1 m/s | 2.132 ± 0.032 mPa·s | 35.2 ± 0.8 mN/m | 989.34 ± 1.6 kg/m3 | 1475 ± 4.1 m/s | 1.777 ± 0.027 mPa·s | 34.2 ± 0.8 mN/m | 980.76 ± 1.7 kg/m3 | 1437.6 ± 4.1 m/s | 1.515 ± 0.023 mPa·s | 972.16 ± 1.8 kg/m3 | 1400.6 ± 4 m/s | 1.31 ± 0.02 mPa·s | – | – | – | – | – | –
2 | NCCO [2-aminoethan-1-ol] | 49.7 ± 0.9 mN/m | 1015.93 ± 1.1 kg/m3 | 1734.4 ± 4 m/s | 24.23 ± 0.24 mPa·s | 47.8 ± 0.9 mN/m | 1008.02 ± 1 kg/m3 | 1702.1 ± 4 m/s | 14.99 ± 0.15 mPa·s | 47.1 ± 0.9 mN/m | 1000.06 ± 0.95 kg/m3 | 1670.1 ± 3.9 m/s | 9.776 ± 0.1 mPa·s | 992.05 ± 1 kg/m3 | 1637.2 ± 3.9 m/s | 6.765 ± 0.076 mPa·s | – | – | – | – | – | –
3 | NCCO [2-aminoethan-1-ol] + CCN1CCCC1=O | – | – | – | – | – | – | – | – | – | – | – | – | – | – | – | 49.7 ± 0.9 mN/m | 1015.93 ± 1.1 kg/m3 | 1734.4 ± 4 m/s | 24.23 ± 0.24 mPa·s | 47.8 ± 0.9 mN/m | mass density ([2]; 303.15 K): 1008.02 ± 1 kg/m3; speed of sound ([2]; 303.15 K): 1702.1 ± 4 m/s; viscosity ([2]; 303.15 K): 14.99 ± 0.15 mPa·s; surface tension liquid-gas ([2]; 313.15 K): 47.1 ± 0.9 mN/m; mass density ([2]; 313.15 K): 1000.06 ± 0.95 kg/m3; speed of sound ([2]; 313.15 K): 1670.1 ± 3.9 m/s; viscosity ([2]; 313.15 K): 9.776 ± 0.1 mPa·s; mass density ([2]; 323.15 K): 992.05 ± 1 kg/m3; speed of sound ([2]; 323.15 K): 1637.2 ± 3.9 m/s; viscosity ([2]; 323.15 K): 6.765 ± 0.076 mPa·s
4 | OCCNCCO [diethanolamine] | 47.4 ± 0.9 mN/m | 1096.45 ± 1.9 kg/m3 | 1739.2 ± 4 m/s | 892.04 ± 87 mPa·s | 46.6 ± 0.9 mN/m | 1090.02 ± 1.8 kg/m3 | 1711.3 ± 4 m/s | 394.2 ± 28 mPa·s | 46 ± 0.9 mN/m | 1083.51 ± 1.8 kg/m3 | 1685.9 ± 3.9 m/s | 191.32 ± 8.8 mPa·s | 1077.05 ± 1.7 kg/m3 | 1661.1 ± 3.9 m/s | 102.72 ± 2.6 mPa·s | – | – | – | – | – | –
5 | OCCNCCO [diethanolamine] + CCN1CCCC1=O | – | – | – | – | – | – | – | – | – | – | – | – | – | – | – | 47.4 ± 0.9 mN/m | 1096.45 ± 1.9 kg/m3 | 1739.2 ± 4 m/s | 892.04 ± 87 mPa·s | 46.6 ± 0.9 mN/m | mass density ([2]; 303.15 K): 1090.02 ± 1.8 kg/m3; speed of sound ([2]; 303.15 K): 1711.3 ± 4 m/s; viscosity ([2]; 303.15 K): 394.2 ± 28 mPa·s; surface tension liquid-gas ([2]; 313.15 K): 46 ± 0.9 mN/m; mass density ([2]; 313.15 K): 1083.51 ± 1.8 kg/m3; speed of sound ([2]; 313.15 K): 1685.9 ± 3.9 m/s; viscosity ([2]; 313.15 K): 191.32 ± 8.8 mPa·s; mass density ([2]; 323.15 K): 1077.05 ± 1.7 kg/m3; speed of sound ([2]; 323.15 K): 1661.1 ± 3.9 m/s; viscosity ([2]; 323.15 K): 102.72 ± 2.6 mPa·s
6 | OCCN(CCO)CCO [triethanolamine] | 46.3 ± 0.9 mN/m | 1123.51 ± 2.1 kg/m3 | 1626.9 ± 3.9 m/s | 951.79 ± 95 mPa·s | 45.6 ± 0.8 mN/m | 1118 ± 2.1 kg/m3 | 1605.3 ± 3.8 m/s | 413.68 ± 30 mPa·s | 44.8 ± 0.8 mN/m | 1112.34 ± 2 kg/m3 | 1587.8 ± 3.8 m/s | 204.57 ± 9.8 mPa·s | 1106.7 ± 2 kg/m3 | 1571.9 ± 3.8 m/s | 111.34 ± 3.1 mPa·s | – | – | – | – | – | –
7 | OCCN(CCO)CCO [triethanolamine] + CCN1CCCC1=O | – | – | – | – | – | – | – | – | – | – | – | – | – | – | – | 46.3 ± 0.9 mN/m | 1123.51 ± 2.1 kg/m3 | 1626.9 ± 3.9 m/s | 951.79 ± 95 mPa·s | 45.6 ± 0.8 mN/m | mass density ([2]; 303.15 K): 1118 ± 2.1 kg/m3; speed of sound ([2]; 303.15 K): 1605.3 ± 3.8 m/s; viscosity ([2]; 303.15 K): 413.68 ± 30 mPa·s; surface tension liquid-gas ([2]; 313.15 K): 44.8 ± 0.8 mN/m; mass density ([2]; 313.15 K): 1112.34 ± 2 kg/m3; speed of sound ([2]; 313.15 K): 1587.8 ± 3.8 m/s; viscosity ([2]; 313.15 K): 204.57 ± 9.8 mPa·s; mass density ([2]; 323.15 K): 1106.7 ± 2 kg/m3; speed of sound ([2]; 323.15 K): 1571.9 ± 3.8 m/s; viscosity ([2]; 323.15 K): 111.34 ± 3.1 mPa·s
